The text below walks through data of patent US5824700A, “Ortho-quinone derivatives novel synthesis therefor and their use in the inhibition of neoplastic cell growth” (Wisconsin Alumni Research Foundation, priority 1996, dated 1998).

One experiment has as its system HT29. Kind of experiment: Colony formation / cell survival assay, HT29 colon cancer cells. It is filed as cell-based, human. The note with it: for effect on ability of HT29 cells to reproduce / IC50: FIG. 1; for effect on ability of HT29 cells to reproduce: β-lapachone at approximately 10 μM; for IC50: HT-29, HT29, 4 h exposure, read-out: ED50 (the source's name). On the procedure:
(§1) The control flasks are treated with DMSO only. […] The remaining flasks are left untouched.
(§2) The cells are monitored for colony formation. […] The plating efficiency for each dish is then calculated.
(§3) The cell lines HT29 and BE are both human colon cancer cell lines which are used to test the effectiveness of a given agent against cancer cell growth and proliferation. […] The HT29 and BE cell cultures were prepared and tested according to the protocol given above.

A further experiment has as its system BE. The experiment is described as follows: Colony formation / cell survival assay, BE colon cancer cells. Type of experiment: cell-based, human. The note with it: for effect on ability of BE cells to reproduce / IC50: FIG. 2; for effect on ability of BE cells to reproduce: β-lapachone at approximately 10 μM; for viability at 2 µM / viability at 10 µM / viability at 20 µM / viability at 100 µM / IC50: Homo sapiens; for viability at 2 µM / viability at 10 µM / viability at 20 µM / viability at 100 µM: 4 h, read-out: Fraction of Cell Survival; for IC50: BE, 4 h exposure, read-out: ED50 (the source's name). The procedure:
as §1, §2, §3

The next experiment concerns MCF7. Kind of experiment: Colony formation / cell survival assay, MCF7 breast cancer cells. The note with it: Homo sapiens, MCF7, 4 h.
The test system of another experiment is A549. The experiment is described as follows: Colony formation / cell survival assay, A549 lung cancer cells. Type of experiment: cell-based. The settings on record: Homo sapiens, A549, 4 h; for IC50: A549, 4 h exposure, read-out: ED50 (the source's name). On the procedure: as §1, §2
The compounds tested were β-lapachone, 3-hydroxy-β-lapachone, 3,3-DINOR-dunnione (designated "Drug A" in the figures), 3-NOR-dunnione (designated "Drug B" in the figures) and dunnione itself (designated "Drug C" in the figures). A legend for the figures is provided below. The cell lines were cultured and the compounds evaluated according to the standard protocol described above.

For experiment [1], the system named is human breast cancer cell line MCF7. Kind of experiment: IC50 determination (DNA amount and anchorage-dependent colony formation), breast cancer MCF7. Type of experiment: cell-based. The settings on record: MCF7, 24 hours exposure. On the procedure:
(§4) Table 15 lists the IC50 determinations of Drugs B, C, and D against the human prostate cancer cell line PC-3 and the human breast cancer cell line MCF7. IC50 calculations for each cell line were determined by DNA amount and anchorage-dependent colony formation (CF) as described elsewhere. (See Planchon et al. Cancer Res. 55, 3706 (1995), incorporated herein by reference.) In short, IC50 calculations for each cell line were determined by DNA amount and anchorage-dependent colony formation (CF) assays. For the CF assay, cells were seeded at 500 viable cells/well in 6-well plates and incubated overnight, then treated with equal volumes of media containing β-lapachone at final concentrations ranging from 0.005 to 50 μM in half-log increments (controls were treated with 0.25% DMSO, equivalent to the highest dose of β-lapachone used) for 4 hours or for continuous 12 hour exposures. Plates (3 wells/condition) were stained with crystal violet, and colonies of >50 normal-appearing cells were enumerated. IC50 values for various cells were calculated using drug doses with numbers of colonies surrounding 50% of control. For DNA assays, plates were harvested for IC50 determinations 8 days after treatment using a CytoFluor 2350 fluorescence measurement system (Millipore). Six-well samplings were included in the calculation of DNA fluor units for each dose. A graph of β-lapachone dose versus percentage control DNA in fluor units was used to calculate each IC50. The cells were exposed for 24 hours to the tricyclic naphthoquinones. All experiments were repeated at least twice, each in duplicate. PC-3 is an androgen-independent prostate cancer cell line.

For experiment [2], the system named is human prostate cancer cell line PC-3. Kind of experiment: IC50 determination (DNA amount and anchorage-dependent colony formation), prostate cancer PC-3. Type of experiment: cell-based. The settings on record: PC-3, 24 hours exposure. On the procedure:
as §4

In a further experiment the test system is Topoisomerase II. The experiment is described as follows: Topoisomerase II-mediated DNA cleavage (electrophoresis). The note with it: gels of FIGS. 9A and 9B. It is filed as biochemical, mammalian. The procedure:
Analogous experiments to assay the ability of several of the compounds described herein to induce Topoisomerase II (Topo II)-mediated DNA cleavage were also performed. The results of one such experiment are depicted in the electrophoretegram of FIGS. 9A and 9B. Here, DNA was incubated in the presence of Topo II and several different compounds described herein.
A legend for the compounds which were tested in FIGS. 9A and 9B is as follows: [drawing 25] Lane 1: R=H (β-lapachone) Lane 2: R=OH
In the far left-hand lane of […], DNA alone is shown. Moving to the right, the next lane contains DNA and Topo II (mammalian). Lanes 1-9 of FIGS. 9A and 9B contain a series of concentrations of drugs (see Legend, above) in the presence of DNA and Topo II. Each set of lanes for each drug spans 3 orders of magnitude in concentration (0.1, 1, 10, and 100 μM). […] However, Lanes 1-9, which contain DNA, Topo II, and a drug according to the present invention, show extensive DNA cleavage.

Where [3] appears, read: Homo sapiens, HT-29, 4 h, read-out: Fraction of Cell Survival.
Where [4] appears, read: read-out: ED50, MCF7, 4 h exposure, FIG. 6.
[5] abbreviates: read-out: Fraction of Cell Survival.
Where [6] appears, read: read-out: ED50, MCF7, 4 h exposure, FIG. 7.
The mark [7] stands for this setting: read-out: Fraction of Cell Survival, MCF7, FIG. 7, 1 μM, 4 h.
Setting [8] is: read-out: Fraction of Cell Survival, MCF7, FIG. 7, 5 μM, 4 h.
Setting [9] is: read-out: Fraction of Cell Survival, MCF7, FIG. 7, 10 μM, 4 h.
Setting [10] is: read-out: Fraction of Cell Survival, MCF7, FIG. 7, 50 μM, 4 h.
The mark [11] stands for this setting: read-out: Fraction of Cell Survival, A549, FIG. 4, 1 μM, 4 h.
Setting [12] is: read-out: Fraction of Cell Survival, A549, FIG. 4, 5 μM, 4 h.
The mark [13] stands for this setting: read-out: Fraction of Cell Survival, A549, FIG. 4, 10 μM, 4 h.
[14] abbreviates: read-out: Fraction of Cell Survival, A549, FIG. 4, 50 μM, 4 h.

Each structure is given as a SMILES string. Like-named read-outs stand apart in the source and are kept apart here.

`CC1(C)OC2=C(CC1O)C(=O)C(=O)c1ccccc12` (stereo not drawn) [3-hydroxy-β-lapachone]: the “effect on ability of HT29 cells to reproduce” value in the experiment with HT29 is “significantly limits the reproductive ability of these cancer cell lines”. Further, in the experiment with HT29 (setting [3]), the viability at 2 µM came to 152%, the viability at 10 µM is 119%, the viability at 20 µM worked out at 2.32% and the viability at 100 µM turned out to be 0%. In the experiment on HT29 (Homo sapiens), the IC50 stood at 15.4 µM. For the same molecule, in the experiment with BE, the “effect on ability of BE cells to reproduce” value was “significantly limits the reproductive ability of these cancer cell lines”, the viability at 2 µM worked out at 92.9%, the viability at 10 µM is 39.2% and the viability at 20 µM was determined as 1.02%. Also, in the experiment with BE, the viability at 100 µM turned out to be 0% and the IC50 worked out at 0.6 µM. In the experiment on MCF7 (setting [4]), the IC50 stood at 7.7 µM. For the same molecule, in the experiment on MCF7 (setting [5]), the viability at 1 µM was determined as 106%, the viability at 5 µM stood at 68%, the viability at 10 µM turned out to be 0% and the viability at 50 µM was 0.32%. Besides, the IC50 in the experiment on A549 (FIG. 3) is 18 µM. In addition, in the experiment with A549 (setting [5]), the viability at 1 µM stood at 304%, the viability at 5 µM is 239%, the viability at 10 µM worked out at 153% and the viability at 50 µM worked out at 0%.

Turning to `CC1CC2=C(O1)c1ccccc1C(=O)C2=O` (stereo not shown) [Drug A], the IC50 in the experiment with MCF7 (setting [6]) was 1.6 µM; in the experiment with A549 (FIG. 4) it was 6 µM. Also, the viability at 1 µM in the experiment with MCF7 (setting [7]) came to 85.4%; in the experiment on A549 (setting [11]), 111%. Further, the viability at 5 µM in the experiment with MCF7 (setting [8]) is 0.36%; in the experiment on A549 (setting [12]), 121%. Besides, the values for the viability at 10 µM in the experiment with MCF7 (setting [9]) and in the experiment with A549 (setting [13]) were 0.18% and 1.72%, respectively. Besides, the results for the viability at 50 µM with MCF7 (setting [10]) and with A549 (setting [14]) were 0.18% and 0.23%, respectively.

On to `CC1OC2=C(C(=O)C(=O)c3ccccc32)C1C` (stereo not shown) [Drug B, 2,3-dimethyl-2,3,4,5-dihydro-naphtho (2,3-b)dihydrofuran-6,7-dione], for which the IC50 in experiment [1] was determined as 0.5 µM; in the experiment with MCF7 (read-out: ED50, MCF7, 4 h exposure, FIG. 8), 1.4 µM; in experiment [2], 0.7 µM; in the experiment on A549 (FIG. 5), 5.6 µM. Further, the viability at 1 µM in the experiment on MCF7 (read-out: Fraction of Cell Survival, MCF7, FIG. 8, 1 μM, 4 h) was found to be 8.88%; in the experiment with A549 (read-out: Fraction of Cell Survival, A549, FIG. 5, 1 μM, 4 h), 89.7%. Besides, the viability at 5 µM was 0.32% in the experiment with MCF7 (read-out: Fraction of Cell Survival, MCF7, FIG. 8, 5 μM, 4 h) and 81.9% in the experiment with A549 (read-out: Fraction of Cell Survival, A549, FIG. 5, 5 μM, 4 h). Further, the viability at 10 µM was 0.16% in the experiment on MCF7 (read-out: Fraction of Cell Survival, MCF7, FIG. 8, 10 μM, 4 h) and 0.24% in the experiment with A549 (read-out: Fraction of Cell Survival, A549, FIG. 5, 10 μM, 4 h). Further, the viability at 50 µM came to 1.54% with MCF7 (read-out: Fraction of Cell Survival, MCF7, FIG. 8, 50 μM, 4 h) and 0% with A549 (read-out: Fraction of Cell Survival, A549, FIG. 5, 50 μM, 4 h).

On to `Cc1cc2c(o1)-c1ccccc1C(=O)C2=O` [Drug D], for which the values for the IC50 in experiment [1] and in experiment [2] were 0.7 µM and 0.9 µM, respectively.

For the molecule `CC1(C)CCC2=C(O1)c1ccccc1C(=O)C2=O` [β-lapachone, 7,8-dihydro-2,2-dimethyl-2H-naphtho(2,3-b)dihydropyran-7,8-dione, reference compound], in the experiment on HT29, the “effect on ability of HT29 cells to reproduce” value was “significantly impacts upon the ability of the HT29 and BE cells to reproduce”. Besides, the viability at 1 µM in the experiment with HT29 (setting [3]) worked out at 96.7%; in the experiment on MCF7 (read-out: Fraction of Cell Survival, MCF7, FIG. 6, 1 μM, 4 h) it was 150%; with MCF7 (setting [7]) it was 92%; in the experiment with A549 (read-out: Fraction of Cell Survival, A549, FIG. 3, 1 μM, 4 h), 265%; in the experiment with A549 (setting [11]), 85.5%. Further, the viability at 5 µM was 49% in the experiment on HT29 (setting [3]); 0% in the experiment with MCF7 (read-out: Fraction of Cell Survival, MCF7, FIG. 6, 5 μM, 4 h); 0.36% in the experiment with MCF7 (setting [8]); 158% in the experiment on A549 (read-out: Fraction of Cell Survival, A549, FIG. 3, 5 μM, 4 h); 89.7% in the experiment with A549 (setting [12]). For the same molecule, the viability at 10 µM in the experiment with HT29 (setting [3]) was found to be 0%; with BE it was 15.8%; in the experiment with MCF7 (read-out: Fraction of Cell Survival, MCF7, FIG. 6, 10 μM, 4 h), 0%; in the experiment on MCF7 (setting [9]) it was 0.18%; in the experiment with A549 (read-out: Fraction of Cell Survival, A549, FIG. 3, 10 μM, 4 h), 0%; with A549 (setting [13]) it was 0.69%. For the same molecule, the viability at 50 µM in the experiment with HT29 (setting [3]) amounted to 0%; with MCF7 (read-out: Fraction of Cell Survival, MCF7, FIG. 6, 50 μM, 4 h), 0.32%; in the experiment with MCF7 (setting [10]) it was 0.09%; in the experiment on A549 (read-out: Fraction of Cell Survival, A549, FIG. 3, 50 μM, 4 h), 17.7%; in the experiment on A549 (setting [14]), 0%. Further, the IC50 in the experiment with HT29 (Homo sapiens) was 4.8 µM; in the experiment with BE it was 8 µM; in the experiment on MCF7 (setting [4]) it was 9.8 µM; in the experiment with MCF7 (setting [6]) it was 1.6 µM; in the experiment on A549 (FIG. 3) it was 6.1 µM; with A549 (FIG. 4), 5.8 µM. In the experiment on BE, the “effect on ability of BE cells to reproduce” value is “significantly impacts upon the ability of the HT29 and BE cells to reproduce”. For the same molecule, in the experiment on BE, the viability at 2 µM came out at 1.17%. The viability at 20 µM in the experiment with BE was 4.39%. In addition, the viability at 100 µM in the experiment with BE is 0%. Moreover, in the experiment on Topoisomerase II, the “intracellular target (in words)” value is listed as “Topo II is an intracellular target”.
